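Five concentrations, 48 hours, 96-well plates. GI50 is the concentration that inhibits growth by half.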 Activity calls are given as the source filed them. No stated cut-off is given here; in the data, active = GI50 up to about 1.1 µM and inactive = higher.
Legend:
Test in all cases: NCI anticancer screen, dose series, 48 h
[1] = tested on: T47D
[2] = tested on: DMS-114
[3] = tested on: KM-20L2
[4] = tested on: LXFL 529
[5] = tested on: M19-MEL
[6] = tested on: RXF 631
[7] = tested on: SNB-78
[8] = tested on: XF498
[9] = tested on: HOP-18

Which GI50 [1] does the source give for Cl/C(=N\c1cccc2ccccc12)N(c1ccccc1)c1ccccc1 here?
Its GI50 is 61.4 µM (inactive).

Which results are given for c1ccc2c(c1)CCc1c(-c3ccncc3)n[nH]c1-2?
GI50 [2]: 17.2 µM (inactive); GI50 [3]: 23.6 µM (inactive); GI50 [4]: 23.7 µM (inactive); GI50 [5]: 21.4 µM (inactive); GI50 [6]: > 10 µM (inactive); GI50 [7]: 29.6 µM (inactive); GI50 [8]: 0.583 µM (active)

With O=[N+]([O-])c1ccc(NN/N=N/c2ccc(-c3nc4ccccc4[nH]3)cc2)c([N+](=O)[O-])c1 as the compound, how does the GI50 [1] read?
Its GI50 is 30.1 µM (inactive).

How did the GI50 [1] turn out when CCCC(=O)OC(OC(=O)CCC)c1ccc([N+](=O)[O-])o1 was run?
The GI50 was 21.4 µM (inactive).

Which GI50 [1] does the source give for CC#CC(O)(C(=O)OC1CCCN(C)C1)C1=CC=CCC1 (stereo not drawn) here?
The GI50 was > 100 µM (inactive).

What does the source list for O=C(O)C1=C(C(=O)Nc2ccccc2)C2C=CC1C2 (stereo not drawn)?
GI50 [2]: > 100 µM (inactive); GI50 [9]: > 100 µM (inactive); GI50 [3]: > 100 µM (inactive); GI50 [4]: > 100 µM (inactive); GI50 [5]: > 100 µM (inactive); GI50 [7]: > 100 µM (inactive); GI50 [8]: > 100 µM (inactive)

How did the GI50 [1] turn out when CC(=O)c1c(C)n(C)c2c1nnc1ccccc12 was run?
Its GI50 is > 100 µM (inactive).

With C=CCC(C(=O)O)c1ccccc1 (stereo not drawn) as the compound, how does the GI50 [1] read?
The GI50 was > 100 µM (inactive).

Which GI50 [1] does the source give for O=c1oc2ccc([N+](=O)[O-])cc2c(Nc2ccc3c(c2)Sc2ccccc2O3)c1[N+](=O)[O-] here?
Its GI50 is 40.7 µM (inactive).

For O=C(CC(=O)Nc1ccccc1)NNC(Sc1ccccc1)c1cc(/N=N/c2ccc(Br)cc2)ccc1O (stereo not drawn), which GI50 [1] is on record?
The GI50 was 3.51 µM (inactive).

COc1cc2cc3c4c(cc(OC)c(OC)c4c2cc1OC)CCN3C(=O)N(C)C was tested. Which GI50 [2] did it give?
Its GI50 is > 100 µM (inactive).

What about the GI50 [3] of the same compound?
Its GI50 is 58.2 µM (inactive).

What about the GI50 [4] of the same compound?
The GI50 was 77.4 µM (inactive).

And the GI50 [5]?
Its GI50 is > 100 µM (inactive).

What about the GI50 [7] of the same compound?
Its GI50 is > 100 µM (inactive).

For CCCCCCCCCCCCc1ccsc1-c1ccc(-c2ccc(-c3sccc3CCCCCCCCCCCC)s2)s1, which GI50 [1] is on record?
Its GI50 is > 100 µM (inactive).

For COc1ccc(C[n+]2cccc(O)c2)cc1, which GI50 [1] is on record?
Its GI50 is > 100 µM (inactive).

Which GI50 [1] does the source give for CCOC(=O)C(NC(=O)CC(C)C)(N1CCN(c2cc3c(cc2F)c(=O)c(C(=O)O)cn3C2CC2)CC1)C(F)(F)F (stereo not drawn) here?
The GI50 was 22.9 µM (inactive).

With OC1(c2ccccc2)OC(C#Cc2ccccc2)(c2ccccc2)c2ccccc21 (stereo not drawn) as the compound, how does the GI50 [2] read?
Its GI50 is 3.13 µM (inactive).

What about the GI50 [3] of the same compound?
The GI50 was 3.33 µM (inactive).

And the GI50 [4]?
Its GI50 is 6.22 µM (inactive).

What about the GI50 [5] of the same compound?
Its GI50 is 3.23 µM (inactive).

And the GI50 [6]?
The GI50 was 3.13 µM (inactive).

What about the GI50 [7] of the same compound?
Its GI50 is 6.98 µM (inactive).

What about the GI50 [8] of the same compound?
The GI50 was 7.26 µM (inactive).

For CC1OC(OC2C(OC(=O)[C@@H]3CC(C)(C)C[C@@H]4C5=CC[C@@H]6[C@@]7(C)C[C@H](O)[C@H](OC8OC(CO)C(O)C(O)C8O)[C@@](C)(CO)C7[C@H](O)C[C@@]6(C)[C@]5(C)C[C@@H](O)[C@H]43)OCC(O)C2O)C(O)C(O)C1O (stereo partly drawn), which GI50 [1] is on record?
The GI50 was > 15 µM (inactive).

For O=C1C(O)=C(CCCc2ccc(Oc3ccccc3)cc2)C(=O)c2ccccc21, which GI50 [2] is on record?
The GI50 was 4.73 µM (inactive).

And the GI50 [3]?
The GI50 was 31.3 µM (inactive).

What about the GI50 [4] of the same compound?
The GI50 was 4.98 µM (inactive).

And the GI50 [5]?
The GI50 was 7.13 µM (inactive).

What about the GI50 [7] of the same compound?
Its GI50 is 28.1 µM (inactive).

What about the GI50 [8] of the same compound?
The GI50 was 9.02 µM (inactive).

Which GI50 [1] does the source give for N#Cc1[nH]c(=O)n(-c2ccc([N+](=O)[O-])cc2)c1N here?
The GI50 was > 10 µM (inactive).

With CCOC(=O)C1=COC(C)(CCc2ccccc2)CC1=O (stereo not drawn) as the compound, how does the GI50 [1] read?
The GI50 was 47.2 µM (inactive).

For Cc1ccc(/C=N/Nc2cc(C)c3ccccc3n2)s1, which GI50 [1] is on record?
The GI50 was 5.48 µM (inactive).

Which results are given for CCOC(=O)c1c2cccccc2n2c(=O)cc(C)nc12?
GI50 [3]: > 100 µM (inactive); GI50 [4]: > 100 µM (inactive); GI50 [7]: > 100 µM (inactive)

Which GI50 [1] does the source give for O=C(NC(Nc1ccc(F)c(Cl)c1)(C(F)(F)F)C(F)(F)F)OCc1ccccc1 here?
Its GI50 is 28.1 µM (inactive).

What does the source list for c1ccc(C2N=NN(c3ccccc3)C2N2CCCCC2)cc1 (stereo not drawn)?
GI50 [2]: > 100 µM (inactive); GI50 [3]: > 100 µM (inactive); GI50 [4]: > 100 µM (inactive); GI50 [5]: > 100 µM (inactive); GI50 [7]: 75 µM (inactive); GI50 [8]: 49.5 µM (inactive)

How did the GI50 [2] turn out when Cc1ccc(NC(=O)c2nc(S)nc(N)c2-c2ccccc2C)cc1C was run?
Its GI50 is > 100 µM (inactive).

What about the GI50 [9] of the same compound?
Its GI50 is > 100 µM (inactive).

And the GI50 [3]?
Its GI50 is > 100 µM (inactive).

And the GI50 [4]?
Its GI50 is > 100 µM (inactive).

And the GI50 [5]?
Its GI50 is > 100 µM (inactive).

And the GI50 [7]?
Its GI50 is > 100 µM (inactive).

And the GI50 [8]?
Its GI50 is > 100 µM (inactive).

With O=C1/C(=C\c2ccccc2)C(NC2CCCCC2)c2ccccc21 (stereo not drawn) as the compound, how does the GI50 [1] read?
The GI50 was 1.73 µM (inactive).

Which GI50 [1] does the source give for C=CCc1ccccc1C1CC2(C(=O)OC)OC1C(C(=O)OC)=C2C(=O)OC (stereo not drawn) here?
The GI50 was > 10 µM (inactive).

For Nc1nc(N)c(N=O)c(Nc2ccc(I)cc2)n1, which GI50 [2] is on record?
Its GI50 is 20.7 µM (inactive).

And the GI50 [3]?
The GI50 was 23.2 µM (inactive).

And the GI50 [4]?
The GI50 was 9.93 µM (inactive).

And the GI50 [5]?
The GI50 was 29.4 µM (inactive).

And the GI50 [7]?
The GI50 was 18.2 µM (inactive).

With O=C1c2ccc3ccccc3c2CCC1N1CCCCC1 (stereo not drawn) as the compound, how does the GI50 [1] read?
The GI50 was 21.2 µM (inactive).

COC(=O)c1c(O)ccc2c1c1c(n2CCc2ccccc2)C(=O)c2ccccc2C1=O was tested. Which GI50 [1] did it give?
The GI50 was 5.47 µM (inactive).

For NC(=O)c1nnsc1NN=O, which GI50 [1] is on record?
The GI50 was > 100 µM (inactive).

With CNC(=O)C(C)C1C(=O)/C(=C(O)/C=C\C(C)=C\C(C)C2OC3(C)OC(C=CC34CO4)C2C)C(=O)N1C1CCC(O)C(C)O1 (stereo not drawn) as the compound, how does the GI50 [1] read?
Its GI50 is > 100 µM (inactive).

CCOC(=O)/C=C/C(Br)=C(Br)/C=C/C(=O)OCC was tested. Which GI50 [1] did it give?
The GI50 was 14.8 µM (inactive).

For Cc1cc(C)nc(NS(=O)(=O)c2ccc(NC(=O)c3cc([N+](=O)[O-])cc([N+](=O)[O-])c3)cc2)n1, which GI50 [1] is on record?
The GI50 was 49.4 µM (inactive).

C/C=C(/CBr)CCC(Br)C(C)(C)Cl.C/C=C(\CBr)CCC(Br)C(C)(C)Cl (stereo not drawn) was tested. Which GI50 [1] did it give?
Its GI50 is > 10 µM (inactive).

— ChEMBL document CHEMBL1201862, “PubChem BioAssay data set” (2004)
